In patent US8765721B2, “Composition comprising phosphatidyl serine and an antigen or allergen and the use thereof” (Vaccine Technology Limited, priority 2004, dated 2014):

Assays:
Type in all cases: in vivo, rat
IgE [1] = assay: Ovalbumin-specific IgE ELISA of serum of immunised rats; settings: pooled group serum
Protocol: (§1) Rats were injected with vaccine compositions comprising the ovalbumin antigen with and without di-oleoyl phosphatidyl serine, lyso-oleoyl phosphatidyl serine or stearoyl(X1)-arachidonoyl(X2) phosphatidyl serine and the concentrations of IgE, IgA and IgG are compared.
(§2) The animals were acclimatised for a period of 5 days prior to dosing. During the acclimatisation period animals were observed twice daily during the working week and once on each day during the weekend to evaluate the health status of the animals. Rats were then allocated to the following dose groups using computer-generated random order numbers.
(§3) On day 0, 20 μg of ovalbumin (OA) in phosphate buffered saline (PBS) with alhydrogel (AHG) adjuvant in a final volume of 0.5 mL was administered.
(§4) On days 21 and 42, 20 μg of ovalbumin (OA) in phosphate buffered saline (PBS) with the relevant test compound in a final volume of 0.5 ml was administered.
(§5) In each case, 0.5 mL of inoculum was injected subcutaneously into the scruff of the neck.
(§6) […] A blood sample was also taken from each animal on Days 15, 22, 29, 36, 43, 50, 57 and 64.
(§7) Serum was prepared by centrifugation of the blood sample at 2,500 rpm for 10 minutes and frozen at −20° C. The samples were then analysed by ELISA to establish the concentration of IgE, IgA and IgG1, IgG2a and IgG2b.
(§8) The purpose of an ELISA is to determine whether a particular protein is present in a sample and then enables quantification of how much is present. By coating the bottom of wells with ovalbumin (OVA) it is possible to bind anti-OVA specific antibodies. To detect only anti-OVA IgA antibodies anti-rat IgA conjugated to HRP was used as a secondary antibody. Quantification of specific antibodies in the rat sera samples was performed using antibody titrations. The data was reported as endpoint titers. Endpoint titers are defined as the last serum dilution giving an optical density value equal to twice the background optical density for the ELISA plate (buffer).

IgA [2] = assay: Ovalbumin-specific IgA ELISA of serum of immunised rats; settings: pooled group serum
Protocol: as §1, §2, §3, §4, §5
On Day 0 a pre-inoculation blood sample was taken. A blood sample was also taken from each animal on Days 15, 22, 29, 36, 43, 50, 57 and 64.
as §7, §8

IgG1 = assay: Ovalbumin-specific IgG1 ELISA of serum of immunised rats; settings: pooled group serum
Protocol: as §1, §2, §3, §4
(§9) In each case, 0.5 mL of inoculum was injected subcutaneously into the scruff of the neck. […]
as §7
The purpose of an ELISA is to determine whether a particular protein is present in a sample and then enables quantification of how much is present. By coating the bottom of wells with ovalbumin (OVA) it is possible to bind anti-OVA specific antibodies. […] Quantification of specific antibodies in the rat sera samples was performed using antibody titrations. The data was reported as endpoint titers. Endpoint titers are defined as the last serum dilution giving an optical density value equal to twice the background optical density for the ELISA plate (buffer).

IgG2a = assay: Ovalbumin-specific IgG2a ELISA of serum of immunised rats; settings: pooled group serum
Protocol: as §1, §2, §3, §4, §9, §7, §8

IgG2b = assay: Ovalbumin-specific IgG2b ELISA of serum of immunised rats; settings: pooled group serum
Protocol: as §1, §2, §3, §4, §5, §6, §7, §8

IgE [3] = assay: Ovalbumin-specific IgE ELISA of serum of immunised rats; settings: Day 1; 250 ug with 20 μg Ova s.c. on days 21 and 42; pooled group serum
IgA [4] = assay: Ovalbumin-specific IgA ELISA of serum of immunised rats; settings: Day 1; 50 ug with 20 μg Ova s.c. on days 21 and 42; pooled group serum
[5] = Day 1, 50 ug with 20 μg Ova s.c. on days 21 and 42
[6] = Day 15, 50 ug with 20 μg Ova s.c. on days 21 and 42
[7] = Day 15, 250 ug with 20 μg Ova s.c. on days 21 and 42
[8] = Day 22, 50 ug with 20 μg Ova s.c. on days 21 and 42
[9] = Day 22, 250 ug with 20 μg Ova s.c. on days 21 and 42
[10] = Day 29, 50 ug with 20 μg Ova s.c. on days 21 and 42
[11] = Day 29, 250 ug with 20 μg Ova s.c. on days 21 and 42
[12] = Day 36, 50 ug with 20 μg Ova s.c. on days 21 and 42
[13] = Day 36, 250 ug with 20 μg Ova s.c. on days 21 and 42
[14] = Day 43, 50 ug with 20 μg Ova s.c. on days 21 and 42
[15] = Day 43, 250 ug with 20 μg Ova s.c. on days 21 and 42
[16] = Day 50, 50 ug with 20 μg Ova s.c. on days 21 and 42
[17] = Day 50, 250 ug with 20 μg Ova s.c. on days 21 and 42
[18] = Day 57, 50 ug with 20 μg Ova s.c. on days 21 and 42
[19] = Day 57, 250 ug with 20 μg Ova s.c. on days 21 and 42
[20] = Day 64, 50 ug with 20 μg Ova s.c. on days 21 and 42
[21] = Day 64, 250 ug with 20 μg Ova s.c. on days 21 and 42
[22] = Day 1, 250 ug with 20 μg Ova s.c. on days 21 and 42

CCCCCCCC/C=C\CCCCCCCC(=O)OC[C@H](COP(=O)(O)OC[C@H](N)C(=O)O)OC(=O)CCCCCCC/C=C\CCCCCCCC [VT001, Dioleoyl phosphatidyl serine]
IgE endpoint titer (IgE [1]; [5]): 0 | IgE endpoint titer (IgE [1]; [6]): 0 | IgE endpoint titer (IgE [1]; [7]): 0 | IgE endpoint titer (IgE [1]; [8]): 0 | IgE endpoint titer (IgE [1]; [9]): 0 | IgE endpoint titer (IgE [1]; [10]): 0 | IgE endpoint titer (IgE [1]; [11]): 40 | IgE endpoint titer (IgE [1]; [12]): 40 | IgE endpoint titer (IgE [1]; [13]): 40 | IgE endpoint titer (IgE [1]; [14]): 0 | IgE endpoint titer (IgE [1]; [15]): 80 | IgE endpoint titer (IgE [1]; [16]): 1280 | IgE endpoint titer (IgE [1]; [17]): 1280 | IgE endpoint titer (IgE [1]; [18]): 160 | IgE endpoint titer (IgE [1]; [19]): 160 | IgE endpoint titer (IgE [1]; [20]): 0 | IgE endpoint titer (IgE [1]; [21]): 40 | IgA endpoint titer (IgA [2]; [22]): 0 | IgA endpoint titer (IgA [2]; [6]): 0 | IgA endpoint titer (IgA [2]; [7]): 0 | IgA endpoint titer (IgA [2]; [8]): 0 | IgA endpoint titer (IgA [2]; [9]): 0 | IgA endpoint titer (IgA [2]; [10]): 320 | IgA endpoint titer (IgA [2]; [11]): 320 | IgA endpoint titer (IgA [2]; [12]): 640 | IgA endpoint titer (IgA [2]; [13]): 640 | IgA endpoint titer (IgA [2]; [14]): 320 | IgA endpoint titer (IgA [2]; [15]): 640 | IgA endpoint titer (IgA [2]; [16]): 1280 | IgA endpoint titer (IgA [2]; [17]): 1280 | IgA endpoint titer (IgA [2]; [18]): 1280 | IgA endpoint titer (IgA [2]; [19]): 1280 | IgA endpoint titer (IgA [2]; [20]): 640 | IgA endpoint titer (IgA [2]; [21]): 640 | IgG1 endpoint titer (IgG1; [5]): 0 | IgG1 endpoint titer (IgG1; [22]): 0 | IgG1 endpoint titer (IgG1; [6]): 160 | IgG1 endpoint titer (IgG1; [7]): 160 | IgG1 endpoint titer (IgG1; [8]): 2560 | IgG1 endpoint titer (IgG1; [9]): 2560 | IgG1 endpoint titer (IgG1; [10]): 40960 | IgG1 endpoint titer (IgG1; [11]): 20480 | IgG1 endpoint titer (IgG1; [12]): 20480 | IgG1 endpoint titer (IgG1; [13]): 40960 | IgG1 endpoint titer (IgG1; [14]): 10240 | IgG1 endpoint titer (IgG1; [15]): 10240 | IgG1 endpoint titer (IgG1; [16]): 20480 | IgG1 endpoint titer (IgG1; [17]): 10240 | IgG1 endpoint titer (IgG1; [18]): 40960 | IgG1 endpoint titer (IgG1; [19]): 40960 | IgG1 endpoint titer (IgG1; [20]): 20480 | IgG1 endpoint titer (IgG1; [21]): 20480 | IgG2a endpoint titer (IgG2a; [5]): 0 | IgG2a endpoint titer (IgG2a; [22]): 0 | IgG2a endpoint titer (IgG2a; [6]): 40 | IgG2a endpoint titer (IgG2a; [7]): 640 | IgG2a endpoint titer (IgG2a; [8]): 2560 | IgG2a endpoint titer (IgG2a; [9]): 1280 | IgG2a endpoint titer (IgG2a; [10]): 5120 | IgG2a endpoint titer (IgG2a; [11]): 2560 | IgG2a endpoint titer (IgG2a; [12]): 10240 | IgG2a endpoint titer (IgG2a; [13]): 5120 | IgG2a endpoint titer (IgG2a; [14]): 10240 | IgG2a endpoint titer (IgG2a; [15]): 10240 | IgG2a endpoint titer (IgG2a; [16]): 40960 | IgG2a endpoint titer (IgG2a; [17]): 40960 | IgG2a endpoint titer (IgG2a; [18]): 40960 | IgG2a endpoint titer (IgG2a; [19]): 40960 | IgG2a endpoint titer (IgG2a; [20]): 20480 | IgG2a endpoint titer (IgG2a; [21]): 20480 | IgG2b endpoint titer (IgG2b; [5]): 0 | IgG2b endpoint titer (IgG2b; [22]): 0 | IgG2b endpoint titer (IgG2b; [6]): 160 | IgG2b endpoint titer (IgG2b; [7]): 320 | IgG2b endpoint titer (IgG2b; [8]): 320 | IgG2b endpoint titer (IgG2b; [9]): 640 | IgG2b endpoint titer (IgG2b; [10]): 160 | IgG2b endpoint titer (IgG2b; [11]): 640 | IgG2b endpoint titer (IgG2b; [12]): 160 | IgG2b endpoint titer (IgG2b; [13]): 2560 | IgG2b endpoint titer (IgG2b; [14]): 160 | IgG2b endpoint titer (IgG2b; [15]): 1280 | IgG2b endpoint titer (IgG2b; [16]): 2560 | IgG2b endpoint titer (IgG2b; [17]): 1280 | IgG2b endpoint titer (IgG2b; [18]): 5120 | IgG2b endpoint titer (IgG2b; [19]): 5120 | IgG2b endpoint titer (IgG2b; [20]): 5120 | IgG2b endpoint titer (IgG2b; [21]): 5120 | IgE endpoint titer (IgE [3]): 0 | IgA endpoint titer (IgA [4]): 0
